Test results: patent US20240208961A1, “EIF4E INHIBITORS AND USES THEREOF” (PIC Therapeutics, Inc., priority 2022, published 2024)
Values joined by “and” are separate entries in the source; they are usually repeats but may differ in a detail not shown here. Equal values may be shown once. Read-outs that look alike come from different tables or passages of the source.

Experiments:
[1] = tested on: NCIH510A; assay: Cell viability assay, suspension cell line, 5 day Alamar Blue (Example 8): NCIH510A; type: cell-based; conditions: Homo sapiens, NCI-H510A, 120 h, Small Cell Lung Cancer Cell Line
[2] = tested on: T47D; assay: Cell viability assay, adherent cell line, 5 day Alamar Blue (Example 8): T47D; type: cell-based; conditions: Homo sapiens, 120 h, Breast Cancer Cell Viability
[3] = Pharmacokinetic studies of certain compounds in female Balb/c mice (Example 5); type: in vivo
Summary of the method: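 Female Balb/c mice (N=9) were fasted overnight and given compound PO as a suspension in 1% CMC/0.2% Tween 80 or IV in 5% DMSO/5% Solutol HS15/90% saline. Facial-vein plasma was taken from 0.083 to 24 h and assayed by LC-MS. Parameters are non-compartmental, and F was based on AUCINF or AUClast.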

[4] = I-8 IV 1 mg/kg, 8 hr, BQL = below quantifiable limit of 3.00 ng/mL
[5] = I-8 IV 1 mg/kg, 24 hr, BQL = below quantifiable limit of 3.00 ng/mL

SMILES: CC(C)Cc1sc(Nc2ncc(-c3cccs3)cc2C(=O)O)nc1C1=CCCC1 [Compound I-8]
- IC50 [1]: ≤ 1000 nM
- IC50 [2]: ≤ 1000 nM
- Plasma concentration Individual ([3]; I-8 IV 1 mg/kg, 0.083 hr, 1 mg/kg): 2020 ng/mL and 1630 ng/mL
- Plasma concentration Individual ([3]; I-8 IV 1 mg/kg, 0.25 hr, 1 mg/kg): 632 ng/mL and 700 ng/mL
- Plasma concentration Individual ([3]; I-8 IV 1 mg/kg, 0.5 hr, 1 mg/kg): 309 ng/mL and 296 ng/mL
- Plasma concentration Individual ([3]; I-8 IV 1 mg/kg, 1 hr, 1 mg/kg): 66.5 ng/mL and 97.1 ng/mL
- Plasma concentration Individual ([3]; I-8 IV 1 mg/kg, 2 hr, 1 mg/kg): 25.8 ng/mL and 16.3 ng/mL
- Plasma concentration Individual ([3]; I-8 IV 1 mg/kg, 4 hr, 1 mg/kg): 7.83 ng/mL and 8.03 ng/mL
- Plasma concentration Individual [3, 4]: BQL
- Plasma concentration Mean [3, 4]: BQL
- Plasma concentration Individual [3, 5]: BQL
- Plasma concentration Mean [3, 5]: BQL
- F ([3]; I-8 PO 50 mg/kg vs IV 1 mg/kg): 27.8%
- Plasma concentration Individual ([3]; I-8 PO 50 mg/kg, 0.083 hr, 50 mg/kg): 482 ng/mL and 270 ng/mL
- Plasma concentration Individual ([3]; I-8 PO 50 mg/kg, 0.25 hr, 50 mg/kg): 1250 ng/mL and 2030 ng/mL
- Plasma concentration Individual ([3]; I-8 PO 50 mg/kg, 0.5 hr, 50 mg/kg): 1900 ng/mL and 3970 ng/mL and 4110 ng/mL
- Plasma concentration Individual ([3]; I-8 PO 50 mg/kg, 1 hr, 50 mg/kg): 3600 ng/mL and 2260 ng/mL
- Plasma concentration Individual ([3]; I-8 PO 50 mg/kg, 2 hr, 50 mg/kg): 2510 ng/mL and 1700 ng/mL
- Plasma concentration Individual ([3]; I-8 PO 50 mg/kg, 4 hr, 50 mg/kg): 536 ng/mL and 958 ng/mL
- Plasma concentration Individual ([3]; I-8 PO 50 mg/kg, 8 hr, 50 mg/kg): 127 ng/mL and 134 ng/mL
- Plasma concentration Individual ([3]; I-8 PO 50 mg/kg, 24 hr, 50 mg/kg): 5.77 ng/mL and 14.0 ng/mL and 3.49 ng/mL
- concentration at 0.083 hr ([3]; female, Balb/c, mouse, plasma, iv, 1 mg/kg, I-8 IV 1 mg/kg, 0.083 hr, read-out: Plasma concentration Individual): 1780 ng/mL
- concentration at 0.083 hr ([3]; female, Balb/c, mouse, plasma, iv, 1 mg/kg, I-8 IV 1 mg/kg, 0.083 hr, read-out: Plasma concentration Mean): 1810 ng/mL
- concentration at 0.25 hr ([3]; female, Balb/c, mouse, plasma, iv, 1 mg/kg, I-8 IV 1 mg/kg, 0.25 hr, read-out: Plasma concentration Individual): 847 ng/mL
- concentration at 0.25 hr ([3]; female, Balb/c, mouse, plasma, iv, 1 mg/kg, I-8 IV 1 mg/kg, 0.25 hr, read-out: Plasma concentration Mean): 726 ng/mL
- concentration at 0.5 hr ([3]; female, Balb/c, mouse, plasma, iv, 1 mg/kg, I-8 IV 1 mg/kg, 0.5 hr, read-out: Plasma concentration Individual): 232 ng/mL
- concentration at 0.5 hr ([3]; female, Balb/c, mouse, plasma, iv, 1 mg/kg, I-8 IV 1 mg/kg, 0.5 hr, read-out: Plasma concentration Mean): 279 ng/mL
- concentration at 1 hr ([3]; female, Balb/c, mouse, plasma, iv, 1 mg/kg, I-8 IV 1 mg/kg, 1 hr, read-out: Plasma concentration Individual): 85.2 ng/mL
- concentration at 1 hr ([3]; female, Balb/c, mouse, plasma, iv, 1 mg/kg, I-8 IV 1 mg/kg, 1 hr, read-out: Plasma concentration Mean): 82.9 ng/mL
- concentration at 2 hr ([3]; female, Balb/c, mouse, plasma, iv, 1 mg/kg, I-8 IV 1 mg/kg, 2 hr, read-out: Plasma concentration Individual): 24.8 ng/mL
- concentration at 2 hr ([3]; female, Balb/c, mouse, plasma, iv, 1 mg/kg, I-8 IV 1 mg/kg, 2 hr, read-out: Plasma concentration Mean): 22.3 ng/mL
- concentration at 4 hr ([3]; female, Balb/c, mouse, plasma, iv, 1 mg/kg, I-8 IV 1 mg/kg, 4 hr, read-out: Plasma concentration Individual): 10 ng/mL
- concentration at 4 hr ([3]; female, Balb/c, mouse, plasma, iv, 1 mg/kg, I-8 IV 1 mg/kg, 4 hr, read-out: Plasma concentration Mean): 8.62 ng/mL
- concentration at 0.083 h ([3]; female, Balb/c, mouse, plasma, po, 50 mg/kg, I-8 PO 50 mg/kg, 0.083 hr, read-out: Plasma concentration Individual): 247 ng/mL
- concentration at 0.083 h ([3]; female, Balb/c, mouse, plasma, po, 50 mg/kg, I-8 PO 50 mg/kg, 0.083 hr, read-out: Plasma concentration Mean): 333 ng/mL
- concentration at 0.25 h ([3]; female, Balb/c, mouse, plasma, po, 50 mg/kg, I-8 PO 50 mg/kg, 0.25 hr, read-out: Plasma concentration Individual): 1220 ng/mL
- concentration at 0.25 h ([3]; female, Balb/c, mouse, plasma, po, 50 mg/kg, I-8 PO 50 mg/kg, 0.25 hr, read-out: Plasma concentration Mean): 1500 ng/mL
- concentration at 0.5 hr ([3]; female, Balb/c, mouse, plasma, po, 50 mg/kg, I-8 PO 50 mg/kg, 0.5 hr, read-out: Plasma concentration Mean): 3330 ng/mL
- concentration at 1 h ([3]; female, Balb/c, mouse, plasma, po, 50 mg/kg, I-8 PO 50 mg/kg, 1 hr, read-out: Plasma concentration Individual): 1810 ng/mL
- concentration at 1 h ([3]; female, Balb/c, mouse, plasma, po, 50 mg/kg, I-8 PO 50 mg/kg, 1 hr, read-out: Plasma concentration Mean): 2560 ng/mL
- concentration at 2 h ([3]; female, Balb/c, mouse, plasma, po, 50 mg/kg, I-8 PO 50 mg/kg, 2 hr, read-out: Plasma concentration Individual): 1670 ng/mL
- concentration at 2 h ([3]; female, Balb/c, mouse, plasma, po, 50 mg/kg, I-8 PO 50 mg/kg, 2 hr, read-out: Plasma concentration Mean): 1960 ng/mL
- concentration at 4 h ([3]; female, Balb/c, mouse, plasma, po, 50 mg/kg, I-8 PO 50 mg/kg, 4 hr, read-out: Plasma concentration Individual): 530 ng/mL
- concentration at 4 h ([3]; female, Balb/c, mouse, plasma, po, 50 mg/kg, I-8 PO 50 mg/kg, 4 hr, read-out: Plasma concentration Mean): 675 ng/mL
- concentration at 8 h ([3]; female, Balb/c, mouse, plasma, po, 50 mg/kg, I-8 PO 50 mg/kg, 8 hr, read-out: Plasma concentration Individual): 155 ng/mL
- concentration at 8 h ([3]; female, Balb/c, mouse, plasma, po, 50 mg/kg, I-8 PO 50 mg/kg, 8 hr, read-out: Plasma concentration Mean): 139 ng/mL
- concentration at 24 h ([3]; female, Balb/c, mouse, plasma, po, 50 mg/kg, I-8 PO 50 mg/kg, 24 hr, read-out: Plasma concentration Mean): 7.75 ng/mL
- AUC(0-inf) ([3]; mouse, plasma, I-8 IV 1 mg/kg): 717 ng·h/mL
- AUC(0-t) ([3]; mouse, plasma, I-8 IV 1 mg/kg): 705 ng·h/mL
- C0 ([3]; mouse, plasma, I-8 IV 1 mg/kg): 2850 ng/mL
- MRT inf ([3]; mouse, plasma, I-8 IV 1 mg/kg): 28.3 min
- MRT last ([3]; mouse, plasma, I-8 IV 1 mg/kg): 23.2 min
- clearance ([3]; mouse, plasma, I-8 IV 1 mg/kg): 23.2 mL/min/kg
- half-life ([3]; mouse, plasma, I-8 IV 1 mg/kg): 58.2 min
- Vd ([3]; mouse, plasma, I-8 IV 1 mg/kg, read-out: Vss): 0.657 L/kg
- AUC(0-inf) ([3]; mouse, plasma, I-8 PO 50 mg/kg): 9970 ng·h/mL
- AUC(0-t) ([3]; mouse, plasma, I-8 PO 50 mg/kg): 9930 ng·h/mL
- Cmax ([3]; mouse, plasma, I-8 PO 50 mg/kg): 3330 ng/mL
- MRT inf ([3]; mouse, plasma, I-8 PO 50 mg/kg): 182 min
- MRT last ([3]; mouse, plasma, I-8 PO 50 mg/kg): 176 min
- Tmax ([3]; mouse, plasma, I-8 PO 50 mg/kg): 30 min
- half-life ([3]; mouse, plasma, I-8 PO 50 mg/kg): 197 min
